The test system of data set [1] is TC-3 cells. As to the kind of experiment: Inhibition of IL-1 induced pancreatic beta-cell death. The conditions noted are these: 1 μM single addition, IL-1 10 ng/ml, two days. Format: cell-based. On the procedure:
Inhibition of IL-1 induced pancreatic beta-cell death by the D-TAT-IB1(s) peptide was analyzed. TC-3 cells were incubated for 30 minutes with one single addition of the indicated peptides (1, μM), then IL-1 (10 ng/ml) was added.
Apoptotic cells were then counted after two days of incubation with IL-1 by use of Propidium Iodide and Hoechst 33342 nuclear staining. A minimum of 1,000 cells were counted for each experiment.
Long term inhibition of IL-1P induced cell-death by the D-TAT-IB1 peptide was also analyzed. TC-3 cells were incubated for 30 minutes with one single addition of the indicated peptides (1 μM), then IL-1 (10 ng/ml) was added, followed by addition of the cytokine every two days. Apoptotic cells were then counted after 15 days of incubation with IL-1 by use of propidium iodide and Hoechst 33342 nuclear staining. […] A minimum of 1.000 cells were counted for each experiment.

Data set [2] relates to TNBS induced colitis. The data set can be described thus: TNBS induced colitis (IBD study). It counts as in vivo. How it is done: b) Constitution of Test Groups and Dose Levels • The table below lists the experimental groups comprising the study.
c) Test Procedures • Colitis was induced by administration of TNBS dissolved in 50% Ethanol • All animals were then treated with doses of XG-102 in the range of 0.1 to 1000 μg/kg, […], as a single or repeated daily doses (see above).
d) Observations and Examinations • i) Clinical Signs • Throughout the duration of the above experiment, careful clinical examinations were carried out and recorded. Observations included changes external appearance, e.g. of the skin, fur, eyes, mucous membranes, occurrence of secretions and excretions (e.g. diarrhea), and autonomic activity. Changes in gait, posture and response to handling, as well as the presence of bizarre behavior, tremors, convulsions, sleep and coma were also noted. • ii) Body Weights • Determination of individual body weight of animals was made on a daily basis. • iii) Clinical Assessment of Colitis • Body weight, stool consistency and bleeding per rectum were all recorded daily and served as the parameters of disease severity score:
• iv) Gross Pathology of the Colon • On the last day of the experiment, animals were euthanized and the colon was removed for gross pathology evaluation according to the following score: […]

Data set [3] concerns leucocytes (cd11b positive cells) in inflamed hind paw. The data set can be described thus: Immunohistochemistry and CD11b staining on paw from CFA-induced inflammation (4 h). It counts as in vivo, C57/Bl6 mice. The conditions noted are these: 10 μg/kg i.v. one hour prior to CFA; 4 h after CFA. How it is done: FIG. 19A, FIG. 19B, and FIG. 19C: Immunohistochemistry staining on paw from CFA-induced inflammation (4 h). Upper panels represent the Hematoxylin and Eosin (H&E) staining of hindpays. From left to right: a saline-treated animal which was not treated with CFA (Complete Freund's Adjuvant), a saline-treated animal which received CFA and a XG-102-(SEQ ID NO: 233) treated animal which also received a CFA injection. After CFA treatment, muscular and epithelial layers appear to be less organized due to edema. The presence of XG-102 (SEQ ID NO:233) positive cells was detected only in animal treated with XG-102 (upper right panel). […] 19A: Magnification ×20; 19B: Magnification ×40; 19C: Magnification ×100.
FIG. 20A represents the hind paw section of a CFA treated animal stained with three different dyes. The four upper panels represent the same portion at high magnification of a distal region. Distribution of the leucocyte marker (mainly granulocytes, macrophages and monocytes) cd11b (first from left) and XG-102 (SEQ ID NO: 233, second from left) as well as the Dapi nuclear stain (3rd from left) are indicated. The upper right panel represents the merge image of cd11b and XG-102 positive stain. […]

Ends that are not written are not given here.

On to “dqsrpvqpflnIttprkprpprrrqrrkkrg (DQSRPVQPFLNLTTPRKPRPPRRRQRRKKRG; not fully specified (some residues); printed as dqsrpvqpflnIttprkprpprrrqrrkkrg) [XG-102]”, for which the IL-1 induced apoptosis result in data set [1] is on record as “decreased IL-1 induced apoptosis to a similar extent as L-TAT-IB peptides”. For the same substance, the “disease recovery (conclusion)” value in data set [2] is “active in enhancing diseases recovery”. In addition, in data set [2] (TNBS induced weight loss), the body weights entry was “either prevented the weight loss or ameliorated the symptoms and supported recovery”. The clinical score result in data set [2] (any dose, route or time schedule (single dose or daily dose)) is recorded as “an effect equivalent to or better than the one observed with the commonly used reference drug sulfasalazine”. Also, in data set [2] (mouse, in vivo), the clinical signs result is reported as “No abnormalities were observed” and the mortality rate result is “No mortality was recorded”. In data set [3], the “co-localization with cd11b positive leucocytes” value is “co-localizes with a certain leucocyte population” and the “presence in leucocytes of inflamed paw (HRP staining)” value is reported as “presence of XG-102 in infiltrating leucocytes”.

For the origin of these results see patent US10023615B2, “Efficient transport into white blood cells” (priority 2008, dated 2018).
